Data reported in PubChem BioAssay (NCI).
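In this assay, cells in 96-well plates receive the compound at five concentrations for 48 hours. Endpoints are linearly interpolated between the surrounding concentrations. At the TGI there is no net growth.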

Experiments:
Test in all cases: NCI-60 cell line screen, 48 h
[1] = tested on: SW-620 colon
[2] = tested on: HOP-62 NSCLC
[3] = tested on: NCI/ADR-RES ovarian
[4] = tested on: SR leukemia
[5] = tested on: HOP-92 NSCLC
[6] = tested on: IGROV1 ovarian
[7] = tested on: UO-31 renal
[8] = tested on: A498 renal
[9] = tested on: NCI-H460 lung
[10] = tested on: SF-268 CNS
[11] = tested on: M14 melanoma
[12] = tested on: BT-549 breast
[13] = tested on: SF-295 CNS
[14] = tested on: LOX IMVI melanoma
[15] = tested on: U251 CNS
[16] = tested on: T-47D breast
[17] = tested on: CCRF-CEM leukemia
[18] = tested on: NCI-H23 lung
[19] = tested on: PC-3 prostate
[20] = tested on: ACHN renal
[21] = tested on: NCI-H522 lung
[22] = tested on: HCT-15 colon
[23] = tested on: HCC-2998 colon
[24] = tested on: HL-60(TB) leukemia
[25] = tested on: MDA-MB-231 breast
[26] = tested on: HCT-116 colon
[27] = tested on: NCI-H226 lung
[28] = tested on: SK-MEL-5 melanoma
[29] = tested on: HT29 colon
[30] = tested on: OVCAR-5 ovarian
[31] = tested on: MDA-N
[32] = tested on: 786-0 renal
[33] = tested on: SNB-19 CNS
[34] = tested on: SN12C renal
[35] = tested on: SNB-75 CNS
[36] = tested on: SK-MEL-2 melanoma
[37] = tested on: TK-10 renal
[38] = tested on: UACC-257 melanoma
[39] = tested on: RXF 393 renal
[40] = tested on: EKVX NSCLC
[41] = tested on: SF-539 CNS
[42] = tested on: MALME-3M melanoma
[43] = tested on: A549 NSCLC
[44] = tested on: OVCAR-8 ovarian
[45] = tested on: SK-OV-3 ovarian
[46] = tested on: DU-145 prostate
[47] = tested on: HS 578T breast
[48] = tested on: SK-MEL-28 melanoma
[49] = tested on: COLO 205 colon
[50] = tested on: RPMI-8226 leukemia
[51] = tested on: UACC-62 melanoma
[52] = tested on: MCF7 breast
[53] = tested on: OVCAR-3 ovarian
[54] = tested on: MOLT-4 leukemia
[55] = tested on: CAKI-1 renal
[56] = tested on: MDA-MB-435
[57] = tested on: KM12 colon
[58] = tested on: OVCAR-4 ovarian
[59] = tested on: K-562 leukemia

SMILES: O=P1(Oc2ccc(Cl)cc2)OCCS1 (stereo unspecified)
- TGI [1]: > 100 µM
- TGI [2]: > 100 µM
- TGI [3]: > 100 µM
- TGI [4]: > 100 µM
- TGI [5]: > 100 µM
- TGI [6]: > 100 µM
- TGI [7]: > 100 µM
- TGI [8]: > 100 µM
- TGI [9]: > 100 µM
- TGI [10]: > 100 µM
- TGI [11]: > 100 µM
- TGI [12]: > 100 µM
- TGI [13]: > 100 µM
- TGI [14]: > 100 µM
- TGI [15]: > 100 µM
- TGI [16]: > 100 µM
- TGI [17]: > 100 µM
- TGI [18]: > 100 µM
- TGI [19]: > 100 µM
- TGI [20]: > 100 µM
- TGI [21]: > 100000 nM
- TGI [22]: > 100 µM
- TGI [23]: > 100 µM
- TGI [24]: > 100 µM
- TGI [25]: > 100 µM
- TGI [26]: > 100 µM
- TGI [27]: > 100 µM
- TGI [28]: > 100000 nM
- TGI [29]: > 100 µM
- TGI [30]: > 100 µM
- TGI [31]: > 100 µM
- TGI [32]: > 100 µM
- TGI [33]: > 100 µM
- TGI [34]: > 100 µM
- TGI [35]: > 100 µM
- TGI [36]: > 100 µM
- TGI [37]: > 100 µM
- TGI [38]: > 100 µM
- TGI [39]: > 100 µM
- TGI [40]: > 100 µM
- TGI [41]: > 100 µM
- TGI [42]: > 100 µM
- TGI [43]: > 100 µM
- TGI [44]: > 100 µM
- TGI [45]: > 100 µM
- TGI [46]: > 100 µM
- TGI [47]: > 100 µM
- TGI [48]: > 100 µM
- TGI [49]: > 100000 nM
- TGI [50]: > 100 µM
- TGI [51]: > 100 µM

SMILES: CN(C)CCNC(=O)c1cccc2nc3cccc(F)c3nc12
- TGI [1]: 5.82 µM
- TGI [2]: 8.55 µM
- TGI [3]: 3.83 µM
- TGI [5]: 3.63 µM
- TGI [6]: 9.67 µM
- TGI [7]: 4.83 µM
- TGI [8]: 5.14 µM
- TGI [9]: 2.73 µM
- TGI [10]: 19.4 µM
- TGI [11]: 4.58 µM
- TGI [12]: 11.4 µM
- TGI [13]: 6.79 µM
- TGI [14]: 2.24 µM
- TGI [15]: 6.61 µM
- TGI [16]: > 28.4 µM
- TGI [17]: 10.4 µM
- TGI [18]: 5.17 µM
- TGI [19]: 4.26 µM
- TGI [20]: 3.56 µM
- TGI [21]: 2740 nM
- TGI [22]: 5.77 µM
- TGI [52]: 6.56 µM
- TGI [23]: 4.31 µM
- TGI [24]: 6.39 µM
- TGI [25]: 6.77 µM
- TGI [26]: 4.56 µM
- TGI [27]: 3.21 µM
- TGI [28]: 2380 nM
- TGI [29]: 8.34 µM
- TGI [53]: 8.97 µM
- TGI [30]: 7.06 µM
- TGI [31]: 3.13 µM
- TGI [32]: 24.8 µM
- TGI [33]: > 35 µM
- TGI [54]: 14.2 µM
- TGI [55]: 15.8 µM
- TGI [34]: 5.48 µM
- TGI [35]: 13.2 µM
- TGI [36]: 4.86 µM
- TGI [56]: 2.92 µM
- TGI [57]: 8.43 µM
- TGI [37]: 6.45 µM
- TGI [38]: 3.86 µM
- TGI [39]: 4.11 µM
- TGI [40]: 6.16 µM
- TGI [41]: 7.7 µM
- TGI [42]: 6.35 µM
- TGI [43]: 2.85 µM
- TGI [58]: 4.83 µM
- TGI [59]: 12.3 µM
- TGI [44]: 3.68 µM
- TGI [46]: 12.9 µM
- TGI [47]: 9.27 µM
- TGI [48]: 11.5 µM
- TGI [49]: 1890 nM
- TGI [50]: 5.65 µM
- TGI [51]: > 19.8 µM

SMILES: O=C1NC(=O)C(C(c2ccc(Cl)cc2)C2C(=O)NC(=O)NC2=O)C(=O)N1
- TGI [1]: > 100 µM
- TGI [2]: > 100 µM
- TGI [3]: > 100 µM
- TGI [5]: > 100 µM
- TGI [6]: > 100 µM
- TGI [7]: > 100 µM
- TGI [8]: > 100 µM
- TGI [9]: > 100 µM
- TGI [11]: > 100 µM
- TGI [12]: > 100 µM
- TGI [13]: > 100 µM
- TGI [14]: > 100 µM
- TGI [15]: > 100 µM
- TGI [16]: > 100 µM
- TGI [17]: > 100 µM
- TGI [18]: > 100 µM
- TGI [19]: > 100 µM
- TGI [20]: > 100 µM
- TGI [21]: > 100000 nM
- TGI [22]: > 100 µM
- TGI [52]: > 100 µM
- TGI [24]: > 100 µM
- TGI [25]: > 100 µM
- TGI [26]: > 100 µM
- TGI [27]: > 100 µM
- TGI [28]: > 100000 nM
- TGI [29]: > 100 µM
- TGI [53]: > 100 µM
- TGI [30]: > 100 µM
- TGI [31]: > 100 µM
- TGI [32]: > 100 µM
- TGI [33]: > 100 µM
- TGI [54]: > 100 µM
- TGI [55]: > 100 µM
- TGI [34]: > 100 µM
- TGI [36]: > 100 µM
- TGI [56]: > 100 µM
- TGI [57]: > 100 µM
- TGI [37]: > 100 µM
- TGI [38]: > 100 µM
- TGI [39]: > 100 µM
- TGI [40]: > 100 µM
- TGI [42]: > 100 µM
- TGI [43]: > 100 µM
- TGI [58]: > 100 µM
- TGI [59]: > 100 µM
- TGI [44]: > 100 µM
- TGI [46]: > 100 µM
- TGI [47]: > 100 µM
- TGI [48]: > 100 µM
- TGI [49]: > 100000 nM
- TGI [50]: > 100 µM
- TGI [51]: > 100 µM

SMILES: O=C(OCC12CC3CC(CC(C3)C1)C2)c1ccc(NCc2cc(O)ccc2O)cc1
- TGI [1]: > 25.7 µM
- TGI [2]: 16 µM
- TGI [3]: 8.97 µM
- TGI [5]: 17.6 µM
- TGI [6]: 3.21 µM
- TGI [7]: 1.96 µM
- TGI [8]: 11.8 µM
- TGI [9]: 7.5 µM
- TGI [10]: 20.5 µM
- TGI [11]: 5.77 µM
- TGI [12]: 1.25 µM
- TGI [13]: 17.7 µM
- TGI [14]: 4.72 µM
- TGI [15]: 5.33 µM
- TGI [16]: 2.06 µM
- TGI [18]: 3.88 µM
- TGI [19]: 4.88 µM
- TGI [20]: 7.04 µM
- TGI [21]: 854 nM
- TGI [22]: 5.75 µM
- TGI [52]: 36.8 µM
- TGI [23]: 4.02 µM
- TGI [24]: 15 µM
- TGI [25]: 11.6 µM
- TGI [26]: 10.3 µM
- TGI [27]: 6.71 µM
- TGI [28]: 2900 nM
- TGI [29]: 14.6 µM
- TGI [53]: 1.67 µM
- TGI [30]: 4.71 µM
- TGI [31]: 16.7 µM
- TGI [32]: 2.35 µM
- TGI [33]: 11 µM
- TGI [55]: 2.06 µM
- TGI [34]: 18.7 µM
- TGI [35]: 7.23 µM
- TGI [36]: 8.12 µM
- TGI [56]: 7.06 µM
- TGI [57]: 4.52 µM
- TGI [37]: 4.83 µM
- TGI [38]: 3.28 µM
- TGI [39]: 3.03 µM
- TGI [40]: 9.26 µM
- TGI [41]: 1.93 µM
- TGI [43]: 12.6 µM
- TGI [58]: 6.28 µM
- TGI [59]: > 49.2 µM
- TGI [44]: 7.28 µM
- TGI [45]: 20.4 µM
- TGI [46]: 18.7 µM
- TGI [47]: 12.1 µM
- TGI [48]: 3.54 µM
- TGI [49]: 2800 nM
- TGI [50]: 1.68 µM
- TGI [51]: 3.93 µM
